{"source": "patent US20160038563A1", "about": "“MOLECULAR TARGETS FOR HEALING OR TREATING WOUNDS” (University College Cardiff Consultants Limited, priority 2010, published 2016)", "key": {"HaCaT cells [1]": {"test_system": "HaCaT cells", "test": "ECIS cell adhesion assay", "type": "cell-based, human", "source_text": "(§1) • 1. Cells and Human keratinocytes and melanoma Cells (HaCaT-from The German Cancer Institute/Cell Service, Germany and A431—from ATCC), human vascular endothelial cell, HECV (from Interlab, Italy) were used. Recombinant human HGF was from the research laboratory. nWASP inhibitors, Wiskostatin and 187-1 were from Merck Pharmaceuticals and TOCRIS, respectively. Tissue collection and preparation of RNA/cDNA bank from human wound/skin tissues. Fresh tissues from abnormal/chronic wounds (n=14), acute wounds (n=10) and normal skin from healthy volunteers (n=10) were collected under an approval from the local ethical committee (Ethical approval ID: 05/WSE03/92) and stored in −80° C. until use. Written informed consent was obtained from each patient who agreed for a biopsy to be taken. Tissues were frozen sectioned on a cryostat (Leica). A portion of the sections were kept for histological analysis. Approximate 20 sections were pooled and homogenised using a hand-held homogenizer using a procedure to extract RNA from the tissues. RNA extracted from the tissues was quantified and cDNA was subsequently generated using a RT kit. Abnormal/chronic wound tissues were from patients with abnormal/chronic leg ulcers. Acute wound tissues were obtained from patients with acute surgical wounds after undergoing excision of pilonidal disease. Normal tissues were from normal volunteer's normal skin. • 2. Analysis of nWASP gene transcripts was carried out using conventional and quantitative real time PCR (Icycler IQ, Bio-Rad) on human wound and skin tissues and cells. […] The study adopted the Ampliflor quantitation technology, in which one set of gene specific primers and a Uniprimer probes were used, in combination with quantitative PCR master mix. […] An internal standard was employed for quantitation purpose. […] The first was recorded immediately after plating of the cells into each well at 3 frequencies: 400 Hz, 4,000 Hz, and 40,000 Hz. […]"}, "HaCaT cells [2]": {"test_system": "HaCaT cells", "test": "ECIS cell migration assay (electric wounding) and micromotion", "type": "cell-based, human", "settings": "for resistance following wounding (migration): measured at 400 Hz; for cell migration of transfected HaCaT cells: vs wild type HaCaT, electric wounding, ECIS", "source_text": "• 1. Cells and Human keratinocytes and melanoma Cells (HaCaT-from The German Cancer Institute/Cell Service, Germany and A431—from ATCC), human vascular endothelial cell, HECV (from Interlab, Italy) were used. Recombinant human HGF was from the research laboratory. nWASP inhibitors, Wiskostatin and 187-1 were from Merck Pharmaceuticals and TOCRIS, respectively. Tissue collection and preparation of RNA/cDNA bank from human wound/skin tissues. Fresh tissues from abnormal/chronic wounds (n=14), acute wounds (n=10) and normal skin from healthy volunteers (n=10) were collected under an approval from the local ethical committee (Ethical approval ID: 05/WSE03/92) and stored in −80° C. until use. Written informed consent was obtained from each patient who agreed for a biopsy to be taken. Tissues were frozen sectioned on a cryostat (Leica). A portion of the sections were kept for histological analysis. Approximate 20 sections were pooled and homogenised using a hand-held homogenizer using a procedure to extract RNA from the tissues. RNA extracted from the tissues was quantified and cDNA was subsequently generated using a RT kit. Abnormal/chronic wound tissues were from patients with abnormal/chronic leg ulcers. Acute wound tissues were obtained from patients with acute surgical wounds after undergoing excision of pilonidal disease. Normal tissues were from normal volunteer's normal skin. • 2. Analysis of nWASP gene transcripts was carried out using conventional and quantitative real time PCR (Icycler IQ, Bio-Rad) on human wound and skin tissues and cells. For conventional PCR, primers used were: NWASPF8 (5′agtccctatcactttcctc′3) (SEQ ID NO 1) and NWASPR8 (5′[…]′3) (SEQ ID NO 2) and NWASPF9 (5′[…]′3) (SEQ ID NO 3) and NWASPR9 (5′[…]′3) (SEQ ID NO 4). For Q-PCR primers used were nWASPF1 and NWASPZR1 (5′[…]′3) (SEQ ID NO 5) and (5′[…]′3) (SEQ ID NO 6). • 3. The study adopted the Ampliflor quantitation technology, in which one set of gene specific primers and a Uniprimer probes were used, in combination with quantitative PCR master mix. The reaction was carried out using ICycler^IQ (Bio-Rad). An internal standard was employed for quantitation purpose. In all the assays, GAPDH and actin were amplified and used as the house keeping controls. Levels of a specific gene was normalised to the expression level of GAPDH in the respective sample for example, nWASP, GAPDH and actin transcripts (mRNA) were measure in the same sample. nWASP was then normalised to GAPDH. • 4. Evaluation of cells response to wound stress after n-WASP is targeted. Here, an in vitro cell model, based on the ECIS system, was adopted. Briefly, cells were allowed to sit in the electric arrays and an 8E10 format was used. Cells in fixed number and fixed volume of culture medium were added into each of the respective wells, which had either control medium or a specific inhibitor to N-WASP, namely Wiskostatin or 187-1. In selected wells, a cell migration inducer, HGF was also included in the absence or presence of the nWASP inhibitors. Cells were investigated for the following functions: the adhesiveness to the matrix surface and the migration capacity. The first was recorded immediately after plating of the cells into each well at 3 frequencies: 400 Hz, 4,000 Hz, and 40,000 Hz. The frequencies were chosen following a frequency scanning (FIG. 3). Two main cell functions were thus tested here: the adhesiveness of the cells to matrix and cell migration. • 5. Creation of cell models. We have created a new cell model, based on a human keratinocyte cell line, HaCaT, which expressed high levels of n-WASP. By using anti-nWASP transgenes, we successfully knocked out the expression of n-WASP from the cells and subsequently used the cells in our testing. Briefly, the secondary structure (FIG. 2) of human nWASP was generated using Zuker's RNA mFold software. Three suitable sites for targeting within the nWASP mRNA were identified. […]"}, "HaCaT cells [3]": {"test_system": "HaCaT cells", "test": "growth of HaCaT cells", "type": "cell-based, human"}, "HECV cells": {"test_system": "HECV cells", "test": "endothelial tubule forming assay, HECV wild type (negative for nWASP)", "type": "cell-based, human", "settings": "HECV cells negative for nWASP expression"}, "[4]": {"test": "in vivo tolerance test in CD-1 athymic mice", "settings": "intraperitoneal, daily, 1 and 10 uM, two weeks", "description": "(§2) First, the main tolerance tests were conducted using the CD-1 athymic mice (Charles River Laboratories), owing to their slow and steady rate of growth and easier to observe changes in the skin (hairless) and other possible side effects. Briefly, CD-1 of 4-6 weeks old, 20 g in weight, were housed in filter topped cages. […] Both compounds were given at […] final concentration in 100 ul in volume. […] CD-1 were observed daily, weighed twice weekly. An additional tolerance and efficacy test was carried out using the db/db strain."}, "[5]": {"test": "tolerance in db/db strain", "type": "in vivo, db/db mice", "settings": "administered systemically (IP), efficacy study", "description": "as §2\n(§3) The diabetic strain of db/db was obtained from Harlan. 4-6 weeks old with body weight at 20 g were used. […] Briefly, after being housed for a week, the db/db mice were first ear-pieced using an ear puncher, in order to create a wound (hole) of 1 mm in diameter. The following day after wound creation, all the db/db were weighed, wound photographed using a digital camera. Treatment was given systemically (by IP injection) or topically (by manually applying the compounds in gel into the wound area). Both treatments were given every other day. Images were obtained weekly. The size of the wounds was determined using an image analysis software. Data are given in two ways:\nWiskostatin was first dissolved in DMSO at concentration of 5 mg/ml. The DMSO solution was then gradually diluted in BSS in order to avoid precipitation. […]"}, "wound in db/db mice": {"test_system": "wound in db/db mice", "test": "in vivo efficacy test, wound healing (ear punch wound)", "settings": "for size of wounds vs control: after three weeks", "source_text": "as §3\n1. the area of the wounds in pixels. Two sample student t test was used for statistical analysis. 2. change of the size of wound over the starting point calculated using: (area at a given point—area at the starting point)/(area of the starting point)×100. Bonferroni model was used for data analysis.\nWiskostatin was first dissolved in DMSO at concentration of 5 mg/ml. The DMSO solution was then gradually diluted in BSS in order to avoid precipitation. The solutions were prepared such that each 100 ul contained the correct amount of compounds and was aliquatted and stored at −20° C. until used. The compounds were injected every other day by the IP route. […] Treatment was given every other working day (Monday, Wednesday and Friday) and the images obtained on Wednesday.\nFor topical application, we used two conventional carrier gels (purchased from Pharmacy of University Hospital of Wales) that are currently used in wound care. […] For use, a small amount (150 ul) of the gel was applied to the wound area and gently rubbed in using fingers. Treatment was given every other working day (Monday, Wednesday and Friday) and the images obtained on Wednesday."}, "[6]": {"test_system": "HECV cells transfected and forced to express nWASP", "test": "endothelial tubule forming assay, HECV forced to express nWASP", "type": "cell-based, human", "settings": "nWASP expressing HECV cells, after 48 hours"}, "nWASP mRNA": {"test_system": "nWASP mRNA", "test": "knock down of nWASP mRNA in HaCaT cells by anti-nWASP transgenes (RT-PCR)", "type": "cell-based, human", "settings": "HaCaT cells after transfection (electroporation)", "source_text": "as §1, with “Written informed consent was obtained from each patient who agreed for a biopsy to be taken. Tissues were frozen sectioned on a cryostat (Leica). A portion of the sections were kept for histological analysis. Approximate 20 sections were pooled and homogenised using a hand-held homogenizer using a procedure to extract RNA from the tissues.” left out, “Abnormal/chronic wound tissues were from patients with abnormal/chronic leg ulcers. Acute wound tissues were obtained from patients with acute surgical wounds after undergoing excision of pilonidal disease. Normal tissues were from normal volunteer's normal skin. • 2.” left out"}}, "note": "Entries after “also recorded” stand apart in the source; their conditions may differ."}
{"molecule": "CN(C)C[C@H](O)Cn1c2ccc(Br)cc2c2cc(Br)ccc21", "note": "(racemic) [Wiskostatin]", "values": [{"measurement": "adhesiveness of HaCaT cells to matrix surface", "setting": "HaCaT cells [1]; Wiskostatin 1, 10, 100 nM, 400, 4,000, 40,000 Hz, particularly at 40,000 Hz", "value": "increased the adhesiveness"}, {"measurement": "HGF-induced adhesiveness of HaCaT cells", "setting": "HaCaT cells [1]; with HGF 40 ng/ml, Wiskostatin 1, 10, 100 nM", "value": "further increased the adhesiveness"}, {"measurement": "resistance following wounding (migration)", "setting": "HaCaT cells [2]; 1 nM", "value": "rapid rise of resistance"}, {"measurement": "resistance following wounding (migration)", "setting": "HaCaT cells [2]; 10 nM", "value": "rapid rise of resistance"}, {"measurement": "migration of HaCaT cells", "setting": "HaCaT cells [2]; electric wounding assay", "value": "Increased the Migration"}, {"measurement": "growth of HaCaT cells", "setting": "HaCaT cells [3]", "value": "limited inhibitory effect on the growth and only at a high concentration"}, {"measurement": "effective concentrations relative to those causing toxicity and growth changes", "setting": "HaCaT cells [3]; all effects on cell functions", "value": "far below those that may cause toxicity and growth changes"}, {"measurement": "tubule formation", "setting": "HECV cells", "value": "neither 187-1 nor Wiskostatin had a major impact"}, {"measurement": "tolerability", "setting": "[4]", "value": "Well Tolerated"}, {"measurement": "side effects", "setting": "[5]", "value": "without Producing any Side Effects"}, {"measurement": "size of wounds vs control", "setting": "wound in db/db mice; Wiskostatin systemic 1 μM, p=0.017", "value": "significantly reduced the size of the wounds; also recorded: significant reduction of the size of wound"}, {"measurement": "size of wounds vs control", "setting": "wound in db/db mice; Wiskostatin systemic 10 μM, p=0.04", "value": "significantly reduced the size of the wounds; also recorded: significant reduction of the size of wound"}, {"measurement": "size of wounds vs control", "setting": "wound in db/db mice; Wiskostatin topical-A gel, p=0.044", "value": "significant effect"}, {"measurement": "size of wounds vs control", "setting": "wound in db/db mice; Wiskostatin topical-B gel, p=0.044", "value": "significant effect"}, {"measurement": "wound healing", "setting": "wound in db/db mice; administered systemically (IP), every other day", "value": "Significantly Accelerated Wound Healing"}, {"measurement": "wound healing", "setting": "wound in db/db mice; administered topically in gel", "value": "Significant Effect"}]}
{"molecule": "HGF: recombinant human HGF, cell migration inducer / positive control", "values": [{"measurement": "adhesiveness of HaCaT cells", "setting": "HaCaT cells [1]; HGF 40 ng/ml alone vs control cells", "value": "increased the adhesiveness"}, {"measurement": "migration of control HaCaT cells", "setting": "HaCaT cells [2]; HGF 40 ng/ml", "value": "increased the migration of control HaCaT cells"}, {"measurement": "migration of nWASP transgene carrying HaCaT cells", "setting": "HaCaT cells [2]; HGF 40 ng/ml", "value": "some limited effect"}]}
{"molecule": "Wiskostatin", "values": [{"measurement": "tubule forming", "setting": "[6]", "value": "strong stimulatory effect on tubule forming"}]}
{"molecule": "transgene-1: anti-nWASP antisense-hammerhead ribozyme/RNA transgene, SEQ ID NO 17, cloned into pEF6/V5/His TOPO (nucleic acid, listed as Homo sapiens) DNA: CTGCAGGAGTTCTTTGACCACATACAGTTCCCTGATGAGTCCGTGAGGACGAAATCTGCTGCATATAACTGCACCACACTAGT", "values": [{"measurement": "knocking down nWASP mRNA/transcript", "setting": "nWASP mRNA", "value": "active in knocking down"}]}
{"molecule": "transgene-3: anti-nWASP antisense-hammerhead ribozyme/RNA transgene, SEQ ID NO 19, cloned into pEF6/V5/His TOPO (nucleic acid, listed as Homo sapiens) DNA: CTGCAGGTGCAGCTGTGGGAGCTCTTCTGATGAGTCCGTGAGGACGAAAAGGTGGTGGGGGAGGAGCGCCTCTTCCCCTAGCCTAGT", "values": [{"measurement": "cell migration of transfected HaCaT cells", "setting": "HaCaT cells [2]", "value": "dramatic increase in cell migration"}]}
{"molecule": "transgene-2: anti-nWASP antisense-hammerhead ribozyme/RNA transgene, SEQ ID NO 18, cloned into pEF6/V5/His TOPO (nucleic acid, listed as Homo sapiens) DNA: CTGCAGACAAGCAACACCACTGCACTTCTTTCTGATGAGTCCGTGAGGACGAAACCACATACAGTTCCGATCTGCTGCATATAACTAGT", "values": [{"measurement": "knocking down nWASP mRNA/transcript", "setting": "nWASP mRNA", "value": "active in knocking down; also recorded: highly active"}, {"measurement": "cell migration of transfected HaCaT cells", "setting": "HaCaT cells [2]", "value": "dramatic increase in cell migration"}]}
